Measured values published in paper PMC8841757, “Direct Inhibition of GSDMD by PEITC Reduces Hepatocyte Pyroptosis and Alleviates Acute Liver Injury in Mice” (Frontiers in Immunology, 2022).

How the values were obtained:
[1] = target: T1, human GSDMD WT-EGFP (Homo sapiens, UniProt P57764); test: cellular thermal shift assay (CETSA), western blot; assay type: cell-based; conditions: transfected HEK293T cells, 2 h
T1 construct: GSDMD WT fused to EGFP, transiently expressed in HEK293T cells, cell lysate (MST) or cells (CETSA)
T1 sequence (P57764 1-484): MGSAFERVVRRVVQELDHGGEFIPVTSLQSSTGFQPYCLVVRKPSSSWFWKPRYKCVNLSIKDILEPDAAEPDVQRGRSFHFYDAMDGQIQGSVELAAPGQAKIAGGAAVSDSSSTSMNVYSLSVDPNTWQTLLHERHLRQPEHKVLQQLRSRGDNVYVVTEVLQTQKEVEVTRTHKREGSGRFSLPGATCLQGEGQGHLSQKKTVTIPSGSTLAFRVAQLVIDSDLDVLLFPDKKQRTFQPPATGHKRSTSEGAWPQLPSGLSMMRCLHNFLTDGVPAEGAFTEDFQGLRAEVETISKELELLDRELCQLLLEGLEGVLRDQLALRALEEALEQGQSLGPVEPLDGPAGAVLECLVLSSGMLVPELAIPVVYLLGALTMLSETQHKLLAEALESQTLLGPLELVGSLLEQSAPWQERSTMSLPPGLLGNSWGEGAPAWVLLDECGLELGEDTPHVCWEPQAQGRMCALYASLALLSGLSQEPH

[2] = target: T1, human GSDMD WT-EGFP; test: microscale thermophoresis in cell lysate; assay type: biochemical
[3] = target: T2, mouse GSDMD WT-EGFP (Mus musculus, UniProt Q9D8T2); test: microscale thermophoresis in cell lysate; assay type: biochemical
T2 construct: GSDMD WT fused to EGFP, transiently expressed in AML12 cells, cell lysate (MST); CETSA in AML12 cells with no transfection stated
T2 sequence (Q9D8T2 1-487): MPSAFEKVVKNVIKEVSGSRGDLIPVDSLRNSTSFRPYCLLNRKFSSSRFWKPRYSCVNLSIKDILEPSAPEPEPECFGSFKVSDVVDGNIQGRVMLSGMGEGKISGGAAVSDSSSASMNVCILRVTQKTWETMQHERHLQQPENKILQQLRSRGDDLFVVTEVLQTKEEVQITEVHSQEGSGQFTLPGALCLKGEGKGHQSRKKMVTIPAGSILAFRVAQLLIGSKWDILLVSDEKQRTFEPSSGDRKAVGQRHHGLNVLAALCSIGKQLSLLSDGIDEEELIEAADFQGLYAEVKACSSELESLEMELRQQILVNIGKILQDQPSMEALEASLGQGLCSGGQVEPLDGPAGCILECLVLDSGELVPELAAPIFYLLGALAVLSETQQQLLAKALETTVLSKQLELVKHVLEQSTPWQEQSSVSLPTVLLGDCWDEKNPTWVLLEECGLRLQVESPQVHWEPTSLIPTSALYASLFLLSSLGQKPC

Row | Compound | thermal stability (CETSA) ([1]; 3 μM NSA) | Kd [2] | Kd [3] | thermal stability (CETSA) ([1]; 3 μM PEITC)
1 | COc1nccnc1NS(=O)(=O)c1ccc(NC(=O)/C=C/c2ccc([N+](=O)[O-])s2)cc1 [NSA] | NSA enhanced the thermal stability of human WT-GSDMD | 11200 nM |  | 
2 | S=C=NCCc1ccccc1 [PEITC] |  | 230 nM | 308 nM | PEITC reduced the thermal stability of human WT-GSDMD
